Source: patent US9758485B2, “Compounds for controlling arthropods” (priority 2013, dated 2017)

Assay: logP determination by HPLC on a reversed-phase column (C18), EEC Directive 79/831 Annex V.A8
Assay type: physicochemical
[1] = HPLC-MS, reversed-phase column (C18)
[2] = HPLC on reversed-phase column (C18)

| SMILES | log P [1] | log P [2] |
| --- | --- | --- |
| CCSc1cc(C(F)(F)F)cc(C#N)c1-n1cc(-c2ccc(Cl)c(C(=O)NC3(C#N)CC3)c2)cn1 [I-T3-177] | 3.4 |  |
| CCS(=O)(=O)c1cc(C(F)(F)F)cc(Cl)c1-n1cc(-c2ccc(Cl)c(C(=O)NC3CC3)c2)cn1 [I-T3-178] | 3.2 |  |
| CC[S+]([O-])c1cc(C(F)(F)F)cc(Cl)c1-n1cc(-c2ccc(Cl)c(C(=O)NC3CC3)c2)cn1 (stereo not shown) [I-T3-179] | 3.0 |  |
| CCS(=O)(=O)c1cc(C(F)(F)F)cc(C#N)c1-n1cc(-c2ccc(Cl)c(C(=O)NC3CC3)c2)cn1 [I-T3-180] | 2.8 |  |
| CC[S+]([O-])c1cc(C(F)(F)F)cc(C#N)c1-n1cc(-c2ccc(Cl)c(C(=O)NC3CC3)c2)cn1 (stereo not shown) [I-T3-181] | 2.7 |  |
| CCS(=O)(=O)c1cc(C(F)(F)F)cc(Cl)c1-n1cc(-c2ccc(Cl)c(C(=O)NC3(C#N)CC3)c2)cn1 [I-T3-183] |  | 3.1 |
| O=C(NC1CC1)c1cc(-c2cnn(-c3c(F)cc(C(F)(F)F)cc3Cl)c2)ccc1Cl [I-T3-186] |  | 3.6 |
| N#CC1(NC(=O)c2cc(-c3cnn(-c4c(F)cc(C(F)(F)F)cc4Cl)c3)ccc2Cl)CC1 [I-T3-187] |  | 3.3 |
| N#CC1(NC(=O)c2cc(-c3cnn(-c4c(F)c(F)c(C(F)(F)F)c(F)c4F)c3)ccc2Cl)CC1 [I-T3-188] |  | 3.4 |
| CCS(=O)(=O)c1cc(C(F)(F)F)cc(C#N)c1-n1cc(-c2ccc(Cl)c(C(=O)NC3(C#N)CC3)c2)cn1 [I-T3-190] |  | 2.9 |
| CCSc1cc(C(F)(C(F)(F)F)C(F)(F)F)cc(SCC)c1-n1cc(-c2ccc(Cl)c(C(=O)NC3(C#N)CC3)c2)cn1 [I-T3-191] |  | 4.7 |
| CCSc1cc(C(F)(C(F)(F)F)C(F)(F)F)cc(Cl)c1-n1cc(-c2ccc(Cl)c(C(=O)NC3(C#N)CC3)c2)cn1 [I-T3-192] |  | 4.5 |
| O=C(NC1CC1)c1cc(-c2cnn(-c3c(Cl)cc(C(F)(C(F)(F)F)C(F)(F)F)cc3C(F)F)c2)ccc1Cl [I-T3-193] |  | 4.4 |
| NC(=O)C1(NC(=O)c2cc(-c3cnn(-c4c(F)c(F)c(C(F)(F)F)c(F)c4F)c3)ccc2Cl)CC1 [I-T3-194] |  | 2.8 |
| CC[S+]([O-])c1cc(C(F)(C(F)(F)F)C(F)(F)F)cc(Cl)c1-n1cc(-c2ccc(Cl)c(C(=O)NC3(C#N)CC3)c2)cn1 (stereo not shown) [I-T3-195] |  | 3.8 |
| Cc1cc(C(F)(C(F)(F)F)C(F)(F)F)cc(C(F)(F)F)c1-n1cc(-c2cnc(Cl)c(C(=O)NCC3(C#N)CC3)c2)cn1 [I-T3-197] |  | 4.0 |
| CCS(=O)(=O)c1cc(C(F)(C(F)(F)F)C(F)(F)F)cc(S(=O)(=O)CC)c1-n1cc(-c2ccc(Cl)c(C(=O)NC3(C#N)CC3)c2)cn1 [I-T3-198] |  | 3.7 |
| CCS(=O)(=O)c1cc(C(F)(C(F)(F)F)C(F)(F)F)cc(Cl)c1-n1cc(-c2ccc(Cl)c(C(=O)NC3(C#N)CC3)c2)cn1 [I-T3-201] |  | 4.0 |
| CCSc1cc(C(F)(C(F)(F)F)C(F)(F)F)cc(C)c1-n1cc(-c2ccc(Cl)c(C(=O)NC3(C#N)CC3)c2)cn1 [I-T3-202] |  | 4.5 |
| CCSc1cc(C(F)(C(F)(F)F)C(F)(F)F)cc(C)c1-n1cc(-c2ccc(Cl)c(C(=O)NC3CC3)c2)cn1 [I-T3-203] |  | 4.6 |
| CN(C(=O)c1cc(-c2cnn(-c3c(Cl)cc(C(F)(C(F)(F)F)C(F)(F)F)cc3C#N)c2)cnc1Cl)C1CC1 [I-T3-204] |  | 3.9 |
| N#Cc1cc(C(F)(C(F)(F)F)C(F)(F)F)cc(Cl)c1-n1cc(-c2cnc(Cl)c(C(=O)NC3CC3)c2)cn1 [I-T3-205] |  | 3.5 |
| CC[S+]([O-])c1cc(C(F)(C(F)(F)F)C(F)(F)F)cc(C)c1-n1cc(-c2ccc(Cl)c(C(=O)NC3(C#N)CC3)c2)cn1 (stereo not shown) [I-T3-206] |  | 3.6 |

| SMILES | log P [1] | log P [2] |
| --- | --- | --- |
| N#Cc1cc(C(F)(C(F)(F)F)C(F)(F)F)cc(Cl)c1-n1cc(-c2cnc(Cl)c(C(=O)NC3(C#N)CC3)c2)cn1 [I-T3-207] |  | 3.5 |
| CN(C(=O)c1cc(-c2cnn(-c3c(Cl)cc(C(F)(C(F)(F)F)C(F)(F)F)cc3OC(F)(F)F)c2)cnc1Cl)C1CC1 [I-T3-208] |  | 4.6 |
| CCS(=O)(=O)c1cc(C(F)(C(F)(F)F)C(F)(F)F)cc(C)c1-n1cc(-c2ccc(Cl)c(C(=O)NC3(C#N)CC3)c2)cn1 [I-T3-209] |  | 3.8 |
| CCS(=O)(=O)c1cc(C(F)(C(F)(F)F)C(F)(F)F)cc(C)c1-n1cc(-c2ccc(Cl)c(C(=O)NC3CC3)c2)cn1 [I-T3-210] |  | 3.9 |
| CCOc1cc(C(F)(C(F)(F)F)C(F)(F)F)cc(OCC)c1-n1cc(-c2cnc(Cl)c(C(=O)N(C)C3CC3)c2)cn1 [I-T3-211] |  | 4.7 |
| N#CC1(NC(=O)c2cc(-c3cnn(-c4c(Cl)cc(C(F)(C(F)(F)F)C(F)(F)F)cc4I)c3)ccc2Cl)CC1 [I-T3-212] |  | 4.3 |
| O=C(NC1CC1)c1cc(-c2cnn(-c3c(Cl)cc(C(F)(C(F)(F)F)C(F)(F)F)cc3I)c2)ccc1Cl [I-T3-213] |  | 4.4 |
| O=C(NC1CC1)c1cc(-c2cnn(-c3c(Cl)cc(C(F)(C(F)(F)F)C(F)(F)F)cc3OC(F)F)c2)ccc1Cl [I-T3-214] |  | 4.3 |
| N#CC1(NC(=O)c2cc(-c3cnn(-c4c(Cl)cc(C(F)(C(F)(F)F)C(F)(F)F)cc4OC(F)F)c3)ccc2Cl)CC1 [I-T3-215] |  | 4.1 |
| CN(C(=O)c1cc(-c2cnn(-c3c(Cl)cc(C(F)(C(F)(F)F)C(F)(F)F)cc3OC(F)F)c2)ccc1Cl)C1CC1 [I-T3-216] |  | 4.7 |
| CN(C(=O)c1cc(-c2cnn(-c3c(Cl)cc(C(F)(C(F)(F)F)C(F)(F)F)cc3OC(F)F)c2)cnc1Cl)C1CC1 [I-T3-217] |  | 4.2 |
| N#CC1(NC(=O)c2cc(-c3cnn(-c4c(Cl)cc(C(F)(C(F)(F)F)C(F)(F)F)cc4OC(F)F)c3)cnc2Cl)CC1 [I-T3-218] |  | 3.7 |
| CN(C(=O)c1cc(-c2cnn(-c3c(Cl)cc(C(F)(C(F)(F)F)C(F)(F)F)cc3OC(F)(F)F)c2)ccc1Cl)C1CC1 [I-T3-219] |  | 5.1 |
| CN(C(=O)c1cc(-c2cnn(-c3c(Cl)cc(C(O)(C(F)(F)F)C(F)(F)F)cc3Cl)c2)cnc1Cl)C1CC1 [I-T3-220] |  | 3.4 |
| O=C(NC1CC1)c1cc(-c2cnn(-c3c(Cl)cc(C(O)(C(F)(F)F)C(F)(F)F)cc3Cl)c2)cnc1Cl [I-T3-221] |  | 3.0 |
| N#CC1(NC(=O)c2cc(-c3cnn(-c4c(Cl)cc(C(O)(C(F)(F)F)C(F)(F)F)cc4Cl)c3)cnc2Cl)CC1 [I-T3-222] |  | 3.0 |
| CN(C(=O)c1cc(-c2cnn(-c3c(Cl)cc(C(O)(C(F)(F)F)C(F)(F)F)cc3Cl)c2)cnc1Cl)C1(C#N)CC1 [I-T3-223] |  | 3.3 |
| O=C(NC1CC1)c1cc(-c2cnn(-c3c(I)cc(C(F)(C(F)(F)F)C(F)(F)F)cc3OC(F)(F)F)c2)ccc1Cl [I-T3-224] |  | 4.7 |
| CN(C(=O)c1cc(-c2cnn(-c3c(I)cc(C(F)(C(F)(F)F)C(F)(F)F)cc3OC(F)(F)F)c2)ccc1Cl)C1CC1 [I-T3-225] |  | 5.2 |
| N#CC1(NC(=O)c2cc(-c3cnn(-c4c(I)cc(C(F)(C(F)(F)F)C(F)(F)F)cc4OC(F)(F)F)c3)ccc2Cl)CC1 [I-T3-226] |  | 4.6 |
| O=C(NC1CC1)c1cc(-c2cnn(-c3c(I)cc(C(F)(C(F)(F)F)C(F)(F)F)cc3C(F)(F)F)c2)ccc1Cl [I-T3-227] |  | 4.5 |
| N#CC1(NC(=O)c2cc(-c3cnn(-c4c(I)cc(C(F)(C(F)(F)F)C(F)(F)F)cc4C(F)(F)F)c3)ccc2Cl)CC1 [I-T3-228] |  | 4.4 |
| CN(C(=O)c1cc(-c2cnn(-c3c(I)cc(C(F)(C(F)(F)F)C(F)(F)F)cc3C(F)(F)F)c2)ccc1Cl)C1CC1 [I-T3-229] |  | 5.1 |
